From US11491120B2, “Pharmacological prophylactics against stress-induced affective disorders in females” (The Trustees of Columbia University in the City of New York, priority 2017, dated 2022)
Entries after “also recorded” stand apart in the source; their conditions may differ.

System: female 129S6/SvEv mice
Assay: Contextual fear conditioning (CFC), 3-shock, freezing in training and context re-exposure
Conditions: for p, Sal vs. drug, Dunnett test: Freezing (Average), Contextual Fear Conditioning Re-exposure / p, Freezing (min 1-5) / p, Freezing (min 2) / p, Freezing (min 3) / p, Freezing (min 4) / p, Freezing (min 5): 1 week prophylactic drug
[1] = 0.025 mg/kg, 24 hours before CFC, female mice
[2] = Contextual Fear Conditioning Re-exposure, Dunnett test Sal vs. drug (0.025)
[3] = Contextual Fear Conditioning Re-exposure, Dunnett test Sal vs. drug (0.075)
[4] = Contextual Fear Conditioning Re-exposure, Dunnett test Sal vs. drug (0.1)
[5] = Contextual Fear Conditioning Re-exposure, Dunnett test Sal vs. drug (0.3)
[6] = Contextual Fear Conditioning Re-exposure, Dunnett test Sal vs. drug (2.5)
[7] = Contextual Fear Conditioning Re-exposure, Dunnett test Sal vs. drug (10)
[8] = Contextual Fear Conditioning Training, Dunnett test Sal vs. drug (0.025)
[9] = Contextual Fear Conditioning Training, Dunnett test Sal vs. drug (0.075)
[10] = Contextual Fear Conditioning Training, Dunnett test Sal vs. drug (0.1)
[11] = Contextual Fear Conditioning Training, Dunnett test Sal vs. drug (0.3)
[12] = Contextual Fear Conditioning Training, Dunnett test Sal vs. drug (2.5)

**Q.** Which “p, Sal vs. drug, Dunnett test: Freezing (Average), Contextual Fear Conditioning Re-exposure” value (shortened to “p, Sal vs. drug, Dunnett test: Freezing”) (0.025 mg/kg) does the source give for N[C@@]1(c2ccccc2Cl)CCC[C@@H](O)C1=O [(2R,6R)-HNK, (2R,6R)-hydroxynorketamine] here?
**A.** 0.4341

**Q.** What about the “Freezing / fear expression during re-exposure vs saline” value [1] of the same compound?
**A.** comparable levels of freezing

**Q.** And the “Freezing / fear learning during CFC training vs saline” value [1]?
**A.** comparable levels of freezing; also recorded: did not alter fear learning

**Q.** And the “p, Sal vs. drug, Dunnett test: Freezing” value (0.075 mg/kg)?
**A.** 0.9955

**Q.** What about the “p, Sal vs. drug, Dunnett test: Freezing” value (0.1 mg/kg) of the same compound?
**A.** 0.9257

**Q.** What about the “p, Sal vs. drug, Dunnett test: Freezing” value (0.3 mg/kg) of the same compound?
**A.** 0.9993

**Q.** And the “p, Sal vs. drug, Dunnett test: Freezing” value (2.5 mg/kg)?
**A.** 0.6274

**Q.** What about the “Freezing during 3-shock CFC training vs saline” value (10 mg/kg, 1 week before CFC, female mice) of the same compound?
**A.** significantly lowered freezing

**Q.** What about the “p, Sal vs. drug, Dunnett test: Freezing” value (10 mg/kg) of the same compound?
**A.** 0.9991

**Q.** What about the “Freezing during context re-exposure vs saline” value (3 days before CFC, female mice) of the same compound?
**A.** do not affect freezing during re-exposure

**Q.** What about the “p, Freezing (min 1-5)” value [2] of the same compound?
**A.** 0.4341

**Q.** And the “p, Freezing (min 2)” value [2]?
**A.** 0.1669

**Q.** And the “p, Freezing (min 3)” value [2]?
**A.** 0.8139

**Q.** And the “p, Freezing (min 4)” value [2]?
**A.** 0.6797

**Q.** And the “p, Freezing (min 5)” value [2]?
**A.** 0.7607

**Q.** What about the “p, Freezing (min 1-5)” value [3] of the same compound?
**A.** 0.9955

**Q.** And the “p, Freezing (min 2)” value [3]?
**A.** >0.9999

**Q.** What about the “p, Freezing (min 3)” value [3] of the same compound?
**A.** 0.9009

**Q.** And the “p, Freezing (min 4)” value [3]?
**A.** 0.9994

**Q.** And the “p, Freezing (min 5)” value [3]?
**A.** 0.9990

**Q.** What about the “p, Freezing (min 1-5)” value [4] of the same compound?
**A.** 0.9257

**Q.** And the “p, Freezing (min 2)” value [4]?
**A.** 0.9990

**Q.** What about the “p, Freezing (min 3)” value [4] of the same compound?
**A.** 0.9333

**Q.** And the “p, Freezing (min 4)” value [4]?
**A.** 0.9679

**Q.** And the “p, Freezing (min 5)” value [4]?
**A.** 0.8119

**Q.** What about the “p, Freezing (min 1-5)” value [5] of the same compound?
**A.** 0.9993

**Q.** And the “p, Freezing (min 2)” value [5]?
**A.** 0.9998

**Q.** And the “p, Freezing (min 3)” value [5]?
**A.** 0.9954

**Q.** What about the “p, Freezing (min 4)” value [5] of the same compound?
**A.** 0.9994

**Q.** What about the “p, Freezing (min 5)” value [5] of the same compound?
**A.** 0.9991

**Q.** What about the “p, Freezing (min 1-5)” value [6] of the same compound?
**A.** 0.6274

**Q.** And the “p, Freezing (min 2)” value [6]?
**A.** 0.2365

**Q.** What about the “p, Freezing (min 3)” value [6] of the same compound?
**A.** 0.4707

**Q.** What about the “p, Freezing (min 4)” value [6] of the same compound?
**A.** 0.3440

**Q.** And the “p, Freezing (min 5)” value [6]?
**A.** 0.9997

**Q.** And the “p, Freezing (min 1-5)” value [7]?
**A.** 0.9991

**Q.** And the “p, Freezing (min 2)” value [7]?
**A.** 0.9994

**Q.** What about the “p, Freezing (min 3)” value [7] of the same compound?
**A.** 0.9074

**Q.** What about the “p, Freezing (min 4)” value [7] of the same compound?
**A.** 0.9994

**Q.** What about the “p, Freezing (min 5)” value [7] of the same compound?
**A.** 0.9003

**Q.** What about the “p, Freezing (min 1-5)” value [8] of the same compound?
**A.** 0.7272

**Q.** And the “p, Freezing (min 4)” value [8]?
**A.** 0.9640

**Q.** And the “p, Freezing (min 5)” value [8]?
**A.** 0.9668

**Q.** And the “p, Freezing (min 1-5)” value [9]?
**A.** 0.9917

**Q.** And the “p, Freezing (min 4)” value [9]?
**A.** 0.9911

**Q.** And the “p, Freezing (min 5)” value [9]?
**A.** 0.9993

**Q.** What about the “p, Freezing (min 1-5)” value [10] of the same compound?
**A.** 0.6657

**Q.** And the “p, Freezing (min 4)” value [10]?
**A.** >0.9999

**Q.** And the “p, Freezing (min 5)” value [10]?
**A.** 0.2588

**Q.** And the “p, Freezing (min 1-5)” value [11]?
**A.** 0.9992

**Q.** And the “p, Freezing (min 4)” value [11]?
**A.** 0.9477

**Q.** What about the “p, Freezing (min 5)” value [11] of the same compound?
**A.** >0.9999

**Q.** And the “p, Freezing (min 1-5)” value [12]?
**A.** 0.9993

**Q.** And the “p, Freezing (min 4)” value [12]?
**A.** 0.9991

**Q.** And the “p, Freezing (min 5)” value [12]?
**A.** 0.9997
